Measured values: paper PMC10518717, “High-Throughput Screening and Proteomic Characterization of Compounds Targeting Myeloid-Derived Suppressor Cells” (Molecular & Cellular Proteomics : MCP, 2023)

How the values were obtained:
human PMN-MDSC = assay: Human PMN-MDSC assay (PMN-MDSC/CD8+ T cell/DC coculture, IFNγ HTRF); format: cell-based; settings: 10 μM
Description: CD34+ cells were isolated from fresh human blood from healthy donors, obtained from the Health Services unit of the Healthcare Business of Merck KGaA, Darmstadt, Germany. First, peripheral blood mononuclear cells (PBMC) were isolated via density centrifugation, and then the target cells were isolated via magnetic bead labeling using the EasySep Human CD34 Positive Selection Kit II (Stemcell Technologies #17856). After isolation, the CD34+ cells were cultivated in cultivation medium (StemSpan SFEM II (Stemcell Technologies #09655) + 10% (1×) StemSpan CD34+ Expansion (Stemcell Technologies #02691)) for 10 to 12 days. At that point, the media was exchanged for fresh […] medium (Gibco #31870), supplemented with 10% FCS, 2 mM L-glutamine, 100 U/ml penicillin/streptomycin, 1 mM sodium-pyruvate, 1 mM non-essential amino acids, 50 μM ß-mercaptoethanol, and 100 ng/ml human G-CSF (PeproTech, AF-300-23), and the cells were incubated for 10 days in order to derive human PMN-MDSC.
Monocytes were isolated from fresh human blood from healthy donors, obtained from Health Services unit of the Healthcare Business of Merck KGaA, Darmstadt, Germany. […]
PMN-MDSC and DC were differentiated as described above. […] At that point, the supernatant was transferred and IFNγ was measured using a human INFγ HTRF kit (Cisbio #62[…]) following standard assay protocol provided by the manufacturer. The data was analyzed using Genedata software (GeneData Inc, https://www.genedata.com/) with 0% defined by the DMSO-treated wells and 100% effect defined by the wells without PMN-MDSC. […]
After confirming the physiological and pharmacological suitability of the NUP-MDSC model, we developed a high-throughput screen for the identification of potential MDSC modulators (Fig. 4A and supplemental Fig. S3). […] After 72 h, T cell activity was assessed by recording T cell proliferation and IFN-γ secretion. […] Compounds were declared hits if reversing the suppression effect of NUP-MDSC on T cells with ≥50% in either readout resulting in 392 hit compounds (Fig. 4B). […]

A594 cells = assay: CellROX-based detection of ROS levels; format: cell-based; settings: 48 h treatment (compound 2 7.8 μM, N-acetyl-cysteine 300 μM), then 200 μM tert-butyl hydroperoxide 2 h; compared to compound 3 10 μM
Experimental: A594 cells were maintained in Fluorobrite DMEM (Thermo Fisher Scientific) supplemented with GlutaMAX (Thermo Fisher Scientific) and 10% fetal bovine serum (PAN Biotech). Cells were seeded onto a 24-well microplate (Ibidi) and treated with DMSO, 7.8 μM compound 2 (3x EC50), 10 μM compound 3, or 300 μM N-acetyl-cysteine for 48 h. After the treatment, cells were incubated with 200 μM tert-butyl hydroperoxide (Sigma) for 2 h to stimulate ROS production. Then, cells were stained with CellROX deep red (Thermo Fisher Scientific) following the manufacturer’s guidelines. CellROX deep red signal was measured on a Leica DMI 6000 B epifluorescent microscope with a Cy5 filter set. Mean signal intensity per cell was determined from >100 cells per condition from three independent treatments.
For the CellROX assay, three independent treatments were conducted. From each, the mean signal intensity per cell was determined for >100 cells per condition. The statistical significance was calculated by one-way ANOVA followed by a post hoc Tukey’s multiple comparisons test using GraphPad Prism (v.8.3.0).

CCOC(=O)c1nnn(-c2nn3nnnc3c3ccccc23)c1C [compound 2]
% effect on IFNγ secretion (human PMN-MDSC; mild effect in 4 of 23 donor combinations): < 40% | activity on IFNγ secretion (human PMN-MDSC; some donors of 23 donor combinations): no activity | % effect on IFNγ secretion (human PMN-MDSC; strong effect in 5 of 23 donor combinations): > 40% | CellROX Deep Red fluorescence (amount of ROS in a cell) (A594 cells): decreased significantly
